SMILES strings stand for the structures. In brackets after ≈: the same amount, converted by molar mass. Bounds are passed on as bounds.

As a reminder, the MIC is the lowest concentration that inhibits growth of the organism. As usually defined, the HC50 is the concentration giving 50% haemolysis.

Data set [1] has as its system Klebsiella pneumoniae. Briefly: Antibacterial activity against Klebsiella pneumoniae ATCC 10031 assessed as inhibition of bacterial growth incubated for 24 hrs by broth dilution method. In kind it is functional. (Dilution methods test growth across graded concentrations, often in twofold steps.)
In data set [2] the test system is Acinetobacter baumannii. Briefly: Antibacterial activity against Acinetobacter baumannii R2889 assessed as inhibition of bacterial growth incubated for 24 hrs by broth dilution method. In kind it is functional.
For data set [3], the system named is Staphylococcus aureus. The experiment in a line: Antibacterial activity against methicillin-resistant Staphylococcus aureus N315 assessed as inhibition of bacterial growth incubated for 24 hrs by broth dilution method. The class given is functional.
Data set [4] has as its system Acinetobacter baumannii. Briefly: Antibacterial activity against Acinetobacter baumannii ATCC 17978 assessed as inhibition of bacterial growth incubated for 24 hrs by broth dilution method. The class given is functional.
The test system of data set [5] is Staphylococcus aureus. Briefly: Antibacterial activity against Staphylococcus aureus ATCC 29213 assessed as inhibition of bacterial growth incubated for 24 hrs by broth dilution method. In kind it is functional.
The test system of data set [6] is Klebsiella pneumoniae. The experiment in a line: Antibacterial activity against Klebsiella pneumoniae ATCC 14581 assessed as inhibition of bacterial growth incubated for 24 hrs by broth dilution method. In kind it is functional.
A short description of data set [7]: Hemolytic activity against rabbit blood cells incubated for 1 hr relative to control. The class given is toxicity, cell-based, Oryctolagus cuniculus, Erythrocyte. Particulars: rabbit blood cells (erythrocytes).
The next data set has as its system Escherichia coli. The experiment in a line: Antibacterial activity against Escherichia coli ATCC 25922 assessed as inhibition of bacterial growth incubated for 24 hrs by broth dilution method. The class given is functional.
For data set [8], the system named is Staphylococcus aureus. The experiment in a line: Antibacterial activity against methicillin-resistant Staphylococcus aureus NCTC 10442 assessed as inhibition of bacterial growth incubated for 24 hrs by broth dilution method. The class given is functional.
In the next data set the test system is Pseudomonas aeruginosa. The experiment in a line: Antibacterial activity against Pseudomonas aeruginosa ATCC 9027 assessed as inhibition of bacterial growth incubated for 24 hrs by broth dilution method. In kind it is functional.

Regarding `C=C(C)[C@@H]1CCC(C)=C[C@H]1c1c(OCCCCCNC(=N)N)cc(CCCCC)cc1OCCCCCNC(=N)N`, the MIC stood at 1.56 µg/mL (≈ 2.74 µM) in the data set with Klebsiella pneumoniae [1]; 3.12 µg/mL (≈ 5.49 µM) with Acinetobacter baumannii [2]; 1.56 µg/mL (≈ 2.74 µM) with Staphylococcus aureus [3]; 3.12 µg/mL (≈ 5.49 µM) with Acinetobacter baumannii [4]; 3.12 µg/mL (≈ 5.49 µM) in the data set with Staphylococcus aureus [5]; 3.12 µg/mL (≈ 5.49 µM) with Klebsiella pneumoniae [6]. For the same molecule, the figures for the MIC in the data set on Escherichia coli, in the data set on Staphylococcus aureus [8] and in the data set with Pseudomonas aeruginosa were 3.12 µg/mL (≈ 5.49 µM), 0.78 µg/mL (≈ 1.37 µM) and 25 µg/mL (≈ 43.9 µM), respectively. In data set [7], this molecule registered an HC50 at 1 h of 60.5 µg/mL.
As to `C=C(C)[C@@H]1CCC(C)=C[C@H]1c1c(OCCCCNC(=N)N)cc(CCCCC)cc1OCCCCNC(=N)N`, the MIC was determined as 1.56 µg/mL (≈ 2.88 µM) in the data set with Klebsiella pneumoniae [1]; 0.78 µg/mL (≈ 1.44 µM) in the data set with Acinetobacter baumannii [2]; 0.39 µg/mL (≈ 0.721 µM) with Staphylococcus aureus [3]; 1.56 µg/mL (≈ 2.88 µM) with Acinetobacter baumannii [4]; 0.78 µg/mL (≈ 1.44 µM) in the data set with Staphylococcus aureus [5]; 0.78 µg/mL (≈ 1.44 µM) in the data set on Klebsiella pneumoniae [6]. In addition, the MIC with Escherichia coli is 0.78 µg/mL (≈ 1.44 µM); in the data set on Staphylococcus aureus [8] it was 0.78 µg/mL (≈ 1.44 µM); with Pseudomonas aeruginosa it was 6.25 µg/mL (≈ 11.6 µM). Also, in [7], the HC50 at 1 h amounted to 98.4 µg/mL.
As to `C=C(C)[C@@H]1CCC(C)=C[C@H]1c1c(OCCCCCBr)cc(CCCCC)cc1OCCCCCBr`, the MIC in the data set with Klebsiella pneumoniae [1], in the data set on Acinetobacter baumannii [2], in the data set on Staphylococcus aureus [3], with Acinetobacter baumannii [4], in the data set with Staphylococcus aureus [5] and in the data set with Klebsiella pneumoniae [6] was over 50 µg/mL in each case. Besides, the minimal inhibitory concentration (MIC) in the data set with Escherichia coli, with Staphylococcus aureus [8] and in the data set with Pseudomonas aeruginosa was over 50 µg/mL throughout. Also, the 50% haemolytic concentration (HC50) at 1 h in data set [7] was over 200 µg/mL.
Consider `CN[C@H](CC(C)C)C(=O)N[C@H]1C(=O)N[C@@H](CC(N)=O)C(=O)N[C@H]2C(=O)N[C@H]3C(=O)N[C@H](C(=O)N[C@H](C(=O)O)c4cc(O)cc(O)c4-c4cc3ccc4O)[C@H](O)c3ccc(c(Cl)c3)Oc3cc2cc(c3O[C@@H]2O[C@H](CO)[C@@H](O)[C@H](O)[C@H]2O[C@H]2C[C@](C)(N)[C@H](O)[C@H](C)O2)Oc2ccc(cc2Cl)[C@H]1O` [VANCOMYCIN], for which the MIC is 1.56 µg/mL (≈ 1.08 µM) in the data set with Staphylococcus aureus [3], 0.78 µg/mL (≈ 0.538 µM) in the data set with Staphylococcus aureus [5], over 50 µg/mL in the data set with Escherichia coli and 1.56 µg/mL (≈ 1.08 µM) in the data set on Staphylococcus aureus [8]. This molecule also came in with a 50% haemolytic concentration (HC50) at 1 h in data set [7] of over 200 µg/mL.
With `C=C(C)[C@@H]1CCC(C)=C[C@H]1c1c(OCCCCN(C)CCCNC)cc(CCCCC)cc1OCCCCN(C)CCCNC`, the MIC in the data set with Klebsiella pneumoniae [1] is 1.56 µg/mL (≈ 2.49 µM); in the data set with Acinetobacter baumannii [2] it was 3.12 µg/mL (≈ 4.98 µM); in the data set on Staphylococcus aureus [3], 1.56 µg/mL (≈ 2.49 µM); in the data set on Acinetobacter baumannii [4] it was 1.56 µg/mL (≈ 2.49 µM); in the data set with Staphylococcus aureus [5] it was 1.56 µg/mL (≈ 2.49 µM); in the data set with Klebsiella pneumoniae [6], 3.12 µg/mL (≈ 4.98 µM). Moreover, the minimum inhibitory concentration (MIC) with Escherichia coli came out at 3.12 µg/mL (≈ 4.98 µM); in the data set with Staphylococcus aureus [8] it was 1.56 µg/mL (≈ 2.49 µM); in the data set on Pseudomonas aeruginosa, 3.12 µg/mL (≈ 4.98 µM). In data set [7], this molecule displayed an HC50 at 1 h of over 200 µg/mL.
Consider `C=C(C)[C@@H]1CCC(C)=C[C@H]1c1c(OCCCCN(CCCC)CCCC)cc(CCCCC)cc1OCCCCN(CCCC)CCCC`, for which the MIC with Klebsiella pneumoniae [1], in the data set with Acinetobacter baumannii [2], with Staphylococcus aureus [3], with Acinetobacter baumannii [4], in the data set on Staphylococcus aureus [5] and with Klebsiella pneumoniae [6] was over 50 µg/mL throughout. Moreover, the MIC with Escherichia coli was over 100 µg/mL; in the data set on Staphylococcus aureus [8], over 50 µg/mL; with Pseudomonas aeruginosa it was over 50 µg/mL. Further, the HC50 at 1 h in data set [7] was over 200 µg/mL.
In the case of `C=C(C)[C@@H]1CCC(C)=C[C@H]1c1c(OCCCCN(CCO)CCO)cc(CCCCC)cc1OCCCCN(CCO)CCO`, the MIC was 25 µg/mL (≈ 39.5 µM) with Klebsiella pneumoniae [1]; 50 µg/mL (≈ 79 µM) in the data set on Acinetobacter baumannii [2]; 25 µg/mL (≈ 39.5 µM) in the data set on Staphylococcus aureus [3]; over 50 µg/mL in the data set on Acinetobacter baumannii [4]; 25 µg/mL (≈ 39.5 µM) in the data set with Staphylococcus aureus [5]; 50 µg/mL (≈ 79 µM) with Klebsiella pneumoniae [6]. Besides, the MIC was 100 µg/mL (≈ 158 µM) in the data set on Escherichia coli, 25 µg/mL (≈ 39.5 µM) in the data set with Staphylococcus aureus [8] and over 50 µg/mL in the data set on Pseudomonas aeruginosa. The 50% haemolytic concentration (HC50) at 1 h in data set [7] was over 200 µg/mL.
In the case of `C=C(C)[C@@H]1CCC(C)=C[C@H]1c1c(OCCCCCCN)cc(CCCCC)cc1OCCCCCCN`, the MIC in the data set on Klebsiella pneumoniae [1] was 1.56 µg/mL (≈ 3.04 µM); with Acinetobacter baumannii [2], 3.12 µg/mL (≈ 6.09 µM); in the data set on Staphylococcus aureus [3], 1.56 µg/mL (≈ 3.04 µM); in the data set with Acinetobacter baumannii [4], 3.12 µg/mL (≈ 6.09 µM); with Staphylococcus aureus [5], 1.56 µg/mL (≈ 3.04 µM); with Klebsiella pneumoniae [6] it was 0.78 µg/mL (≈ 1.52 µM). Moreover, the MIC was 3.12 µg/mL (≈ 6.09 µM) in the data set on Escherichia coli, 0.78 µg/mL (≈ 1.52 µM) in the data set on Staphylococcus aureus [8] and over 50 µg/mL in the data set on Pseudomonas aeruginosa. The 50% haemolytic concentration (HC50) at 1 h in [7] is 59.7 µg/mL.
Take `C=C(C)[C@@H]1CCC(C)=C[C@H]1c1c(OCCCCN(C)C)cc(CCCCC)cc1OCCCCN(C)C`: the MIC turned out to be 6.25 µg/mL (≈ 12.2 µM) in the data set on Klebsiella pneumoniae [1]; 6.25 µg/mL (≈ 12.2 µM) in the data set with Acinetobacter baumannii [2]; 3.12 µg/mL (≈ 6.09 µM) with Staphylococcus aureus [3]; 6.25 µg/mL (≈ 12.2 µM) with Acinetobacter baumannii [4]; 3.12 µg/mL (≈ 6.09 µM) in the data set on Staphylococcus aureus [5]; 6.25 µg/mL (≈ 12.2 µM) in the data set on Klebsiella pneumoniae [6]. For the same molecule, the figures for the MIC in the data set on Escherichia coli, with Staphylococcus aureus [8] and in the data set with Pseudomonas aeruginosa were 6.25 µg/mL (≈ 12.2 µM), 6.25 µg/mL (≈ 12.2 µM) and 50 µg/mL (≈ 97.5 µM), respectively. Also, in data set [7], the concentration for 50% haemolysis (HC50) at 1 h was found to be 132 µg/mL.
Take `C=C(C)[C@@H]1CCC(C)=C[C@H]1c1c(OCC(=O)N[C@@H](CCCNC(=N)N)C(=O)OC)cc(CCCCC)cc1OCC(=O)N[C@@H](CCCNC(=N)N)C(=O)OC`: the MIC in the data set with Klebsiella pneumoniae [1] was determined as 25 µg/mL (≈ 32.4 µM); in the data set on Acinetobacter baumannii [2], 25 µg/mL (≈ 32.4 µM); in the data set with Staphylococcus aureus [3], 1.56 µg/mL (≈ 2.02 µM); with Acinetobacter baumannii [4], 12.5 µg/mL (≈ 16.2 µM); in the data set on Staphylococcus aureus [5], 1.56 µg/mL (≈ 2.02 µM); in the data set on Klebsiella pneumoniae [6], 25 µg/mL (≈ 32.4 µM). The MIC in the data set with Escherichia coli was 6.25 µg/mL (≈ 8.11 µM); in the data set with Staphylococcus aureus [8] it was 0.78 µg/mL (≈ 1.01 µM); in the data set with Pseudomonas aeruginosa, 50 µg/mL (≈ 64.9 µM). The HC50 at 1 h in [7] is over 200 µg/mL.
